From patent publication US20250154288A1, “CYTOTOXICITY TARGETING CHIMERAS FOR C-C CHEMOKINE RECEPTOR 2-EXPRESSING CELLS” (GLAXOSMITHKLINE INTELLECTUAL PROPERTY DEVELOPMENT LIMITED, priority 2022, published 2025)
pIC50: −log10 of the molar value. Counter-ions that a name gives are not always drawn. One block for each compound: values may come before it.

What was measured:
[1] = Blood drug concentration analysis (LC-MS/MS) in In Vivo Depletion Assay; settings: human CCR2 (hCCR2) knock-in, 057 background, mouse, whole blood, hCCR2 knock-in mice, IV 0.1 mpk compound + 10 mpk anti-cotinine antibody, 48 hours post-dose, read-out: Exposure of Compound of Formula (I) 48 hours post-dose
Protocol: Human CCR2 (hCCR2) knock-in mice (057 background) were dosed intravenously with a PBS solution containing a compound of Formula (I) to measure depletion of CCR2 expressing cells in peripheral blood. Peripheral blood from IV dosed mice was also analyzed to determine PK properties of the ARM compounds of Formula (I).
Administration to Animal: Solution formulation of antibody and compound of Formula (I) was injected (bolus injection) to the restrained mouse in the right/left lateral tail vein. Animals were dosed with 0.1 milligram per kilogram (mpk) of the compound of Formula (I) and 10 mpk of the anti-cotinine antibody.
Collection of Blood for PK: Blood was collected at time points 0.25 hour, 2 hours, and […] following administration (50 μL/time point) through retro-orbital bleeding under mild isoflurane anesthesia.
Terminal bleeding at end of experiment (48 hr): Approximately 250 μL of blood in K2EDTA tube and approximately 250 μL of blood in SST (serum separation tube) was collected from each mouse through retro-orbital bleeding under deep isoflurane anesthesia. After bleeding, each mouse was sacrificed by cervical dislocation. The blood distribution at termination was determined as follows: • For PK: 50 μL of K2EDTA blood was transferred to another tube for PK • Flow cytometry: Remaining blood (˜200 μL) was used for flow cytometry analysis. • For serum collection: serum separator tubes (BD) were centrifuged at 4° C., 5000 rpm for 15 minutes. Approximately 100 μL serum was separated and stored at −80° C. for further usage. • Blood drug concentration: Samples collected at the various timepoints (0.25 hr, 2 hr, 24 and 48 hr) were analyzed to determine blood drug concentration.
Drug concentration in blood samples was determined by an LC-MS/MS-based bioanalytical method developed at Syngene. Samples were analyzed on Q-Trap, API-5500 LC-MS/MS system coupled with Exion UHPLC system from SCIEX, USA operated in multiple reaction monitoring mode employing electrospray ionization technique in positive polarity. Analyte and internal standard peaks were resolved on Synergi Polar, 75×2.0 mm, 4μ column using mobile phase 10 mM Ammonium acetate in Milli-Q water as phase A and 0.1% Formic acid in acetonitrile as Phase B. Gradient elution was performed with initial composition 95% Phase A at 0.0 min, holding it for 0.2 minutes, ramping to 5% by 1.0 minute, keeping the same for next 0.5 minutes and coming back to 95% by 1.6 minutes. The total run time was 2 minutes.
Working dilutions for calibration curve and quality control standards were prepared by serially diluting 20 mg/mL stock solution with DMSO. Spiked concentrations for calibration curve in the whole blood ranged from 1 ng/mL to 1000 ng/mL. The working solution of internal standard (Verapamil, 25 ng/mL) was prepared in acetonitrile. 10 μL of the study sample and calibration curve, quality control, and blank whole blood samples were aliquoted in 96 deep well plates for processing. 10 μL of Milli-Q water was added to all the samples and briefly vortexed to initiate complete hemolysis. 10 μL of 20 mM dithiothreitol (OTT) was added to all the samples and incubated for 30 minutes at 37° C. The addition of DTT enhanced the recovery of ARM compounds of Formula (I) from the biological matrix. 300 μL of working internal standard solution was added to all samples except total blank and wash samples, where 300 μL of acetonitrile was added. All the samples were vortex mixed for 5 minutes, followed by centrifugation at 4000 rpm for 10 minutes at 4° C. Supernatants were transferred to the loading plate and injected 3 μL to LC-MS/MS system for analysis. The results are shown below in Table 4 and are reported as compound exposure 48 hours post-dose

[2] = target: human alpha1 nicotinic acetylcholine (nACh) receptor (Homo sapiens, UniProt P02708+Q07001); assay: Nicotinic Acetylcholine Receptor Antagonism Assay (IONFlux automated patch clamp); type: cell-based; settings: for pIC50: antagonism of nAChR stimulated with acetylcholine, average if several runs; for Emax at 100 µM: maximum percentage antagonism at Maximum Concentration of Compound Tested 100 μM, read-out: Maximum Response (%)
Chain of human alpha1 nicotinic acetylcholine (nACh) receptor (P02708 21-457): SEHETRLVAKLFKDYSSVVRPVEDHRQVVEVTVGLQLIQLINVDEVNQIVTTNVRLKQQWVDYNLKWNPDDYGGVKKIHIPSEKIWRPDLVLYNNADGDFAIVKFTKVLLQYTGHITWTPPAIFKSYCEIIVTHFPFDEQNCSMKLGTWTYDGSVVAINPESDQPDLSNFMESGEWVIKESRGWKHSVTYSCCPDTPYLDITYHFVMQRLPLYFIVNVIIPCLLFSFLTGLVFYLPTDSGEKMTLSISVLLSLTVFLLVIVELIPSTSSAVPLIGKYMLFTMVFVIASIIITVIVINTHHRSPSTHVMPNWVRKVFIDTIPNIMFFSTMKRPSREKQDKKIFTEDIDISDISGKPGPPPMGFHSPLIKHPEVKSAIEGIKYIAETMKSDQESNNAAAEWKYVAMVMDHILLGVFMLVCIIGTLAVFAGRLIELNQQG
Chain of human alpha1 nicotinic acetylcholine (nACh) receptor (P11230 24-501 partner): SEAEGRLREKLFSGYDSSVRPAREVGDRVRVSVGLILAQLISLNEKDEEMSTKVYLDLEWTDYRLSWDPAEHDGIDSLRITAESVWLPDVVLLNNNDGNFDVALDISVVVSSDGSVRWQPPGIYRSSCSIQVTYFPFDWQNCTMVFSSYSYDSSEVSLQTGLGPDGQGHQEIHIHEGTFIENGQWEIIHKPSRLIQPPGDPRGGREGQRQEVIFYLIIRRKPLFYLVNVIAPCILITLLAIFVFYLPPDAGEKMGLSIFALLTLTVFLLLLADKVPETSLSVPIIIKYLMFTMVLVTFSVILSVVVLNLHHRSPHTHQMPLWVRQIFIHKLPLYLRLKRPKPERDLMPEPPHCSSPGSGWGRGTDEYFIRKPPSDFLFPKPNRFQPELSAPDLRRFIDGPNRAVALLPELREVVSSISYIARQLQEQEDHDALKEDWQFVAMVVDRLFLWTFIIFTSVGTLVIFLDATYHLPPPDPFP
Chain of human alpha1 nicotinic acetylcholine (nACh) receptor (Q07001 22-517): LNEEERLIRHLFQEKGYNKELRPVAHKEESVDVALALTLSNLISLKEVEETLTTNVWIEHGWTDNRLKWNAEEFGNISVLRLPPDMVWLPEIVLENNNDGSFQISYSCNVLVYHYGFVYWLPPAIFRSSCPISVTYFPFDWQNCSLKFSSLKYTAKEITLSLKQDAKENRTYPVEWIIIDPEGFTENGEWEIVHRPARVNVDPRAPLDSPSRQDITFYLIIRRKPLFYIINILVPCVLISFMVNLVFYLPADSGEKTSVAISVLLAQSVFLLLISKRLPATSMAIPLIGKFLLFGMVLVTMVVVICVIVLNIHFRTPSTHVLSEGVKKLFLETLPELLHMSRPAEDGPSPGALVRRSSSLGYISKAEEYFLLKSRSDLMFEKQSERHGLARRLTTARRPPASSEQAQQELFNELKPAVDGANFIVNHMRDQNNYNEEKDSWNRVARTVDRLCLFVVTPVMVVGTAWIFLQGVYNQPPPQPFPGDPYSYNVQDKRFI
Protocol: Cells expressing human alpha1 nicotinic acetylcholine (nACh) receptor (nAChR) were washed and dissociated using Trypsin containing buffer. Cells were then washed and seeded at a density of 3-5 million cells/mL and allowed to grow for 3 days. Then, 60-80 μL of cells were added to plates and incubated with dose response of an ARM compound of Formula (I) with a top concentration of either 10 μM or 100 μM. The receptor was then stimulated via addition of acetylcholine (ACh) and activation of the receptor was monitored via the IONFlux automated patch clamp system. IonFlux Data Analyzer software was utilized to perform leak subtraction and measure (min) peak current amplitude.
Data processing: (1) Current values recorded for vehicle only applications in individual traps/patterns were subtracted from corresponding current amplitude values for control, test article and control+test article. (2) Control response was calculated as % of the average response of the 3rd out of total 3 ACh (10 mM) applications alone. In rare situations, if the 3rd ACh response was obscured due to technical artifacts, the 2nd and/or 1st ACh (10 mM) application was considered as control. The peak current amplitude generated in the presence of each test article concentration was then used to calculate the % inhibition as compared to control response (10 mM ACh alone). These estimates were further corrected for vehicle response and run down corrected by normalizing with time matched control responses (10 mM ACh alone). The corrected percentages were then fit with a non-linear function in GraphPad Prism 6 (or later versions) to determine the IC50.
Exclusion criteria: (i) any n's with poor recording quality, (ii) control current amplitude <500 pA or (iii) significant outliers, as determined by the Grubbs' test.
ARMs compounds of Formula (I) of the invention were tested for antagonism of the nAChR in the above assay in […] experimental runs and the results are shown in Table 6 below. Antagonistic activity of the compounds of Formula (I) of the invention is reported as an IC50 value (half maximal inhibitory concentration) and the maximum percentage antagonism observed at the highest concentration of compound of Formula (I) tested, as indicated in Table 6. For compounds tested in more than one experimental run, the IC50 value is reported as an average.

- concentration at 48 h [1]: 55.7 ng/mL
- pIC50 [2]: < 4.00
- Emax at 100 µM [2]: 29%
SMILES: CO[C@@H]1COCC[C@@H]1N[C@@H]1CC[C@](CCCNC(=O)CCOCCOCCOCCOCCOCCOCCOCCOCCOCCOCCOCCOCCNC(=O)[C@H]2CC(=O)N(C)[C@@H]2c2cccnc2)(C(=O)N2CCc3ncc(C(F)(F)F)cc3C2)C1 [Example 1, (2S,3S)—N-(43-((1S,3R)-3-(((3S,4S)-3-methoxytetrahydro-2H-pyran-4-yl)amino)-1-(3-(trifluoromethyl)-5,6,7,8-tetrahydro-1,6-naphthyridine-6-carbonyl)cyclopentyl)-39-oxo-3,6,9,12,15,18,21,24,27,30,33,36-dodecaoxa-40-azatritetracontyl)-1-methyl-5-oxo-2-(pyridin-3-yl)pyrrolidine-3-carboxamide]

SMILES: CO[C@@H]1COCC[C@@H]1N[C@@H]1CC[C@](CCC2CCN(C(=O)[C@H]3CC[C@H](NC(=O)CCCO[C@H]4CC[C@H](OCCNC(=O)[C@H]5CC(=O)N(C)[C@@H]5c5cccnc5)CC4)CC3)CC2)(C(=O)N2CCc3ncc(C(F)(F)F)cc3C2)C1 [Example 2, (2S,3S)—N-(2-(((1R,4S)-4-(4-(((1S,4R)-4-(4-(2-((1S,3R)-3-(((3S,4S)-3-Methoxytetrahydro-2H-pyran-4-yl)amino)-1-(3-(trifluoromethyl)-5,6,7,8-tetrahydro-1,6-naphthyridine-6-carbonyl)cyclopentyl)ethyl)piperidine-1-carbonyl)cyclohexyl)amino)-4-oxobutoxy)cyclohexyl)oxy)ethyl)-1-methyl-5-oxo-2-(pyridin-3-yl)pyrrolidine-3-carboxamide]
- concentration at 48 h [1]: 53.2 ng/mL
- pIC50 [2]: < 4.00
- Emax at 100 µM [2]: 40%

SMILES: CO[C@@H]1COCC[C@@H]1N[C@@H]1CC[C@](CCCNC(=O)[C@H]2CC[C@H](NC(=O)CCCO[C@H]3CC[C@H](OCCNC(=O)[C@H]4CC(=O)N(C)[C@@H]4c4cccnc4)CC3)CC2)(C(=O)N2CCc3ncc(C(F)(F)F)cc3C2)C1 [Example 3, (2S,3S)-N-(2-(((1R,4S)-4-(4-(((1S,4R)-4-((3-((1S,3R)-3-(((3S,4S)-3-Methoxytetrahydro-2H-pyran-4-yl)amino)-1-(3-(trifluoromethyl)-5,6,7,8-tetrahydro-1,6-naphthyridine-6-carbonyl)cyclopentyl)propyl)carbamoyl)cyclohexyl)amino)-4-oxobutoxy)cyclohexyl)oxy)ethyl)-1-methyl-5-oxo-2-(pyridin-3-yl)pyrrolidine-3-carboxamide]
- concentration at 48 h [1]: 31.3 ng/mL
- pIC50 [2]: < 4.00
- Emax at 100 µM [2]: 38%

SMILES: CO[C@@H]1COCC[C@@H]1N[C@@H]1CC[C@](CCCNC(=O)[C@H]2CC[C@@H](NC(=O)CCCO[C@H]3CC[C@@H](OCCNC(=O)[C@H]4CC(=O)N(C)[C@@H]4c4cccnc4)CC3)CC2)(C(=O)N2CCc3ncc(C(F)(F)F)cc3C2)C1 [Example 4, (2S,3S)-N-(2-(((1S,4R)-4-(4-(((1R,4S)-4-((3-((1S,3R)-3-(((3S,4S)-3-Methoxytetrahydro-2H-pyran-4-yl)amino)-1-(3-(trifluoromethyl)-5,6,7,8-tetrahydro-1,6-naphthyridine-6-carbonyl)cyclopentyl)propyl)carbamoyl)cyclohexyl)amino)-4-oxobutoxy)cyclohexyl)oxy)ethyl)-1-methyl-5-oxo-2-(pyridin-3-yl)pyrrolidine-3-carboxamide, Formic acid salt]
- concentration at 48 h [1]: 26.6 ng/mL
- Emax at 100 µM [2]: 48%

SMILES: CO[C@@H]1COCC[C@@H]1N[C@@H]1CC[C@](CCCCNC(=O)[C@H]2CC[C@H](NC(=O)CCCO[C@H]3CC[C@H](OCCNC(=O)[C@H]4CC(=O)N(C)[C@@H]4c4cccnc4)CC3)CC2)(C(=O)N2CCc3ncc(C(F)(F)F)cc3C2)C1 [Example 7, (2S,3S)-N-(2-(((1R,4S)-4-(4-(((1S,4R)-4-((4-((1S,3R)-3-(((3S,4S)-3-Methoxytetrahydro-2H-pyran-4-yl)amino)-1-(3-(trifluoromethyl)-5,6,7,8-tetrahydro-1,6-naphthyridine-6-carbonyl)cyclopentyl)butyl)carbamoyl)cyclohexyl)amino)-4-oxobutoxy)cyclohexyl)oxy)ethyl)-1-methyl-5-oxo-2-(pyridin-3-yl)pyrrolidine-3-carboxamide]
- concentration at 48 h [1]: 54.4 ng/mL
- pIC50 [2]: 4.03
- Emax at 100 µM [2]: 54%

SMILES: CO[C@@H]1COCC[C@@H]1N[C@@H]1CC[C@](CCNC(=O)[C@H]2CC[C@H](NC(=O)CCCO[C@H]3CC[C@H](OCCNC(=O)[C@H]4CC(=O)N(C)[C@@H]4c4cccnc4)CC3)CC2)(C(=O)N2CCc3ncc(C(F)(F)F)cc3C2)C1 [Example 8, (2S,3S)-N-(2-(((1R,4S)-4-(4-(((1R,4R)-4-((2-((1R,3R)-3-(((3S,4S)-3-Methoxytetrahydro-2H-pyran-4-yl)amino)-1-(3-(trifluoromethyl)-5,6,7,8-tetrahydro-1,6-naphthyridine-6-carbonyl)cyclopentyl)ethyl)carbamoyl)cyclohexyl)amino)-4-oxobutoxy)cyclohexyl)oxy)ethyl)-1-methyl-5-oxo-2-(pyridin-3-yl)pyrrolidine-3-carboxamide]
- concentration at 48 h [1]: 74.9 ng/mL
- Emax at 100 µM [2]: 48%

SMILES: CO[C@@H]1COCC[C@@H]1N[C@@H]1CC[C@](COCCNC(=O)[C@H]2CC[C@H](NC(=O)CCCO[C@H]3CC[C@H](OCCNC(=O)[C@H]4CC(=O)N(C)[C@@H]4c4cccnc4)CC3)CC2)(C(=O)N2CCc3ncc(C(F)(F)F)cc3C2)C1 [Example 11, (2S,3S)-N-(2-(((1R,4S)-4-(4-(((1S,4R)-4-((2-(((1S,3R)-3-(((3S,4S)-3-Methoxytetrahydro-2H-pyran-4-yl)amino)-1-(3-(trifluoromethyl)-5,6,7,8-tetrahydro-1,6-naphthyridine-6-carbonyl)cyclopentyl)methoxy)ethyl)carbamoyl)cyclohexyl)amino)-4-oxobutoxy)cyclohexyl)oxy)ethyl)-1-methyl-5-oxo-2-(pyridin-3-yl)pyrrolidine-3-carboxamide]
- concentration at 48 h [1]: 85.1 ng/mL
- pIC50 [2]: < 4.00
- Emax at 100 µM [2]: 39%
